A short description of data set [1]: Quantum yield measurement of singlet oxygen (DPBF absorbance decay under light irradiation). To be noted: singlet oxygen quantum yield relative to tetraphenylporphyrin; DMSO, 27° C., 6.5×10^−7 M fullerene derivative, DPBF absorbance at 418 nm. The format is physicochemical. On the procedure: A DMSO solution containing 5.5×10^−5 M of 1,3-diphenylisobenzofuran (DPBF) was prepared, maintaining the water temperature in a waterbath at 27° C. 3 mL of the DMSO solution was poured into a quartz cell and a DMSO solution containing 1.5×10^−5 M of fullerene derivatives was added so that the concentration of the resulting solution is set to 6.5×10^−7 M. Subsequently, oxygen was bubbled through the solution for one minute or more. The cell was set in position within the waterbath, stirred using a multistirrer and irradiated with light every ten seconds to measure the absorbance of the DPBF at 418 nm. Natural logarithm of the absorbance thus measured was plotted against time of light irradiation to find the gradient. Thus, a relative scale with respect to the quantum yield of tetraphenylporphyrin (φ^1O2) was calculated.

The test system of another data set is HeLa cells. Nature of the data set: Phototoxicity test: viability of HeLa cells by MTT assay, without and with light irradiation. The format is cell-based. How it is done:
The cytotoxicity of (Mal-(CH2)2—N)C60 (hereafter, referred to as Compound A) obtained in Example 12 was evaluated by the viability of HeLa cells using an MTT assay (Carmichal, J., W. G. DeGraff, A. F.Gazdar, J. D. Minna and J. B. Mitchell, Cancer Res., 1987, 47, 936-942). HeLa cells (5×10^3 cells/well) were incubated in a Dulbecco's modified Eagle's medium (DMEM) containing 10% fetal bovine serum (FBS) on a 96-well plate in 5% CO2 at 37° C. for 24 hours. After washing with phosphate buffered saline (PBS), 100 μl of (Mal-(CH2)2—N) C60 (DMEM) (−) solution (25 μM) as a fullerene derivative of the present invention was added to the cells, which were incubated for two hours. The cells were washed with PBS, replaced with 100 μl of DMEM(+) and theie viability was measured using the MTT assay. The viability was determined by measuring the absorbance at 570 nm (OD570). […] The ratio was calculated by the following formula: Cell survival ratio (%)=(OD 570 in the presence of Compound A/OD 570 in the absence of Compound A)×100. A cell survival ratio of 100% means the absence of cytotoxicity.
HeLa cells (5×10^3 cells/well) were treated in the same the manner as in the above. Compound A was added to the cells and the resulting cell was irradiated with a 500 W halogen lamp for 8 minutes. After 24 hours' incubation, the supernatant was removed and formazan was dissolved in 100 μl of DMSO. Thereafter, the viability was determined by measuring the absorbance at 570 nm (OD570). […] The ratio was calculated by the following formula: Cell survival ratio (%)=(OD 570 in the presence of Compound A with irradiation/OD 570 in the absence of Compound A with irradiation)×100.
Evaluations were made in the same manner as in Test Example 2 except that each of (Mal-(CH2)2—N)C60 (Compound A) obtained in Example 12 and (D-Xyl-(CH2)2—N)C60(hereafter, referred to as Compound B) obtained in Example 14 was used in amounts 1, 5, 10, 25 and […]. The obtained results of the cytotoxicities of Compounds A and B are shown in FIGS. 2 and 3, respectively.
Background: Tetrazolium assays rely on reduction of a dye to a coloured formazan, in cell work by metabolically active cells.

With “N,N′-bis[2-(β-(α-D-glucopyranosyl(1-4)-D-glucopyranosyloxy)ethyl) [5,6]-diazafulleroid [(Mal-(CH2)2—N)2C60]”, the “Relative scale for φ^1O2” value in data set [1] is given as 0.8.
On the same count and under the same terms, the same measure for “N-[2-(2,3,4,6-tetra-O-acetyl-β-D-galactopyranosyloxy)ethyl] [5,6]-azafulleroid [(D-AcGal-(CH2)2—N)C60]”: 0.7.
Still for that read-out and setting: the same measure for “N,N′-bis[2-(α-D-mannopyranosyloxy)ethyl] [5,6]-diazafulleroid [(D-Man-(CH2)2—N)2C60]”: 0.5.
On the same count and under the same terms, the same measure for “N-[2-(2,3,4,6-tetra-O-acetyl-β-D-glucopyranosyloxy)ethyl][5,6]-azafulleroid [(D-AcGlc-(CH2)2—N)C60]”: 0.6.
With “N-[2-(β-(α-D-glucopyranosyl(1-4)-D-glucopyranosyloxy)ethyl) [5,6]-azafulleroid [(Mal-(CH2)2—N)C60]”, the “toxicity, share of the cells (photocytotoxicity)” value in the data set with HeLa cells (10 μM, light irradiation as in Test Example 2, FIG. 2) is listed as “about 50%”. In the data set on HeLa cells (25 μM, 500 W halogen lamp for 8 minutes, 24 hours' incubation, MTT OD570, FIG. 1), the “cytotoxicity (cell survival ratio) with light irradiation” value is on record as “cytotoxicity is observed”. The “cytotoxicity (cell survival ratio) without light irradiation” value in the data set with HeLa cells (25 μM, two hours incubation, no light irradiation, MTT OD570, FIG. 1) was “cytotoxicity is not observed”. Moreover, the “Relative scale for φ^1O2” value in data set [1] stood at 0.7.
Turning to “N-[2-(2,3,4,6-tetra-O-acetyl-α-D-mannopyranosyloxy)ethyl] [5,6]-azafulleroid [(D-AcMan-(CH2)2—N)C60]”, the “Relative scale for φ^1O2” value in data set [1] was 0.8.
On the same count and under the same terms, the same measure for “N, N′-bis[2-(2,3,6,8,9,13-hepta-O-acetyl-β-(α-D-glucopyranosyl (1-4)-D-glucopyranosyloxy)ethyl) [5,6]-diazafulleroid [(AcMal-(CH2)2—N)2C60]”: 0.6; for “N,N′-bis[2-(β-D-xylopyranosyloxy)ethyl] [5,6]-diazafulleroid [(D-Xyl-(CH2)2—N)2C60]”: 0.3; for “N, N′-bis[2-(2,3,4,6-tetra-O-acetyl-β-D-galactopyranosyloxy)ethyl] [5,6]-diazafulleroid [(D-AcGal-(CH2)2—N)2C60]”: 0.5.
Regarding “N, N′-bis [2-(2,3,4,6-tetra-O-acetyl-α-D-mannopyranosyloxy)ethyl] [5,6]-diazafulleroid [(D-AcMan-(CH2)2—N)2C60]”, the “Relative scale for φ^1O2” value in data set [1] stood at 0.7.
Still for that read-out and setting: the same measure for “N,N′-bis[2-(β-D-galactopyranosyloxy)ethyl] [5,6]-diazafulleroid [(D-Gal-(CH2)2—N)2C60]”: 0.7; for `OCC1OC(OCCn2c3c4c5c6c7c8c9c%10c%11c%12c%13c%10c%10c8c8c%14c%10c%10c%13c%13c%15c%12c%12c%16c%11c%11c9c7c7c9c%11c%16c%11c%16c%12c%15c%12c%15c%13c%10c%10c%14c(c4c86)c4c%10c%15c6c%12c%16c8c%11c9c(c75)c3c8c6c42)C(O)C(O)C1O` [(D-Gal-(CH2)2—N)C60, N-[2-(β-D-galactopyranosyloxy)ethyl][5,6]-azafulleroid]: 0.7.
In the case of “N-[2-(2,3,4-tri-O-acetyl-β-D-xylopyranosyloxy)ethyl] [5,6]-azafulleroid [(D-AcXyl-(CH2)2—N)C60]”, in data set [1], the “Relative scale for φ^1O2” value is on record as 0.4.
Same read-out and setting: the same measure for “N-[2-(α-D-mannopyranosyloxy)ethyl] [5,6]-azafulleroid [(D-Man-(CH2—N)C60]”: 0.5; for “N,Nα-bis[2-(2,3,4-tri-O-acetyl-β-D-xylopyranosyloxy)ethyl] [5,6]-diazafulleroid [(D-AcXyl-(CH2)2—N)2C60]”: 0.3.
The same measure, in the same setting: the same measure for “N-[2-(β-D-glucopyranosyloxy)ethyl] [5,6]-azafulleroid [(D-Glc-(CH2)2—N)C60]”: 0.6; for “N-[2-(2,3,6,8,9,13-hepta-O-acetyl-β-(α-D-glucopyranosyl (1-4)-D-glucopyranosyloxy)ethyl) [5,6]-azafulleroid [(AcMal-(CH2)2—N)C60]”: 0.7.
On the same count and under the same terms, the same measure for “N, N′-bis[2-(β-D-glucopyranosyloxy)ethyl][5,6]-diazafulleroid [(D-Glc-(CH2)2—N)2C60]”: 0.6; for “N, Nα-bis[2-(2,3,4,6-tetra-O-acetyl-β-D-glucopyranosyloxy)ethyl] [5,6]-diazafulleroid [(D-AcGlc-(CH2)2—N)2C60]”: 0.5.
On to `OC1COC(OCCn2c3c4c5c6c7c8c9c%10c%11c%12c%13c%10c%10c8c8c%14c%10c%10c%13c%13c%15c%12c%12c%16c%11c%11c9c7c7c9c%11c%16c%11c%16c%12c%15c%12c%15c%13c%10c%10c%14c(c4c86)c4c%10c%15c6c%12c%16c8c%11c9c(c75)c3c8c6c42)C(O)C1O` [(D-Xyl-(CH2)2—N)C60, N-[2-(β-D-xylopyranosyloxy)ethyl][5,6]-azafulleroid], for which, in data set [1], the “Relative scale for φ^1O2” value is given as 0.3.

These data come from US6844429B2, “Fullerene derivative and composition comprising the same” (San-Ei Gen F.F.I., priority 2001, dated 2005).
